Source: patent US11236401B2, “Sensors for detection and quantification of microbiological protein secretion” (SenseUp GmbH, priority 2015, dated 2022)
Where a SMILES comes first, the peptide text is derived from it. Bridges are numbered along the chain shown (N, C = ends). [ ]: non-standard residue; d: D form. The star is where a group is joined. Ileψ(thiazoline)Cys = CC[C@H](C)[C@H](N)C1=N[C@H](C(=O)*)CS1; dOrn = NCCC[C@@H](N)C(=O)O

Key:
[1] = test system: strain ATCC 13032 pSen0706; experiment: In vivo EYFP fluorescence of sensor strain ATCC 13032 pSen0706 (cg0706 promoter) as a function of antibiotic concentration, BioLector; format: cell-based, Corynebacterium glutamicum; conditions: ATCC 13032 pSen0706 in CGXII medium, 24 hours; antibiotic added after 4 hours; Vancomycine 0; 1.25; 2.5; 5; 10; 15; 20 μg/ml; Bacitracin 0; 1; 4 μg/ml; excitation 485 nm, emission 520/10 nm; FIGS. 1 and 2
Protocol: (§1) c) Detection of the fluorescence as a function of the concentration of a compound that is characterized by an antibiotic activity due to its property to damage the membrane of a bacterial cell.
The examination of in vivo fluorescence emission was carried out by culturing the cells of strain ATCC 13032 pSen0706 with 0.8 ml CGXII medium (Keilhauer et al, 1993, J. Bacteriol. 175: 5595-603) in microtiter dimension (Flowerplate® MTP-48-B) in the BioLector system (m2p-labs GmbH, 52499 Baesweiler, Germany). This system allows for the parallel cultivation of 48 cultures and regular and automated optical measurements of the culture growth as well as the fluorescence. 10 cultures with cells of strain ATCC 13032 pSen0706 were inoculated to an OD of 0.1 and cultured for 24 hours. After 4 hours the antibiotic substances Vancomycine or Bacitracine were added to the cultures. Vancomycine-concentrations were adjusted to 0; 1.25; 2.5; 5; 10; 15; 20 μg/ml and Bacitracin-concentrations were adjusted to 0; 1; 4 μg/ml. Every 10 minutes the cell densities of cultures and the fluorescence were measured. The fluorescence was excited with light of wavelength 485 nm, the fluorescence emission measurement of EYFP was carried out at 520/10 nm. The fluorescence of the cultures has been digitally recorded by means of the BioLection V.2.4.1.0 software.

[2] = test system: strain ATCC 13032 pSen1325; experiment: In vivo EYFP fluorescence of sensor strain ATCC 13032 pSen1325 (cg1325 promoter) as a function of antibiotic concentration, BioLector; format: cell-based, Corynebacterium glutamicum; conditions: ATCC 13032 pSen1325 in CGXII medium, 24 hours; antibiotic added after 4 hours; Vancomycine 0; 1.25; 2.5; 5; 10; 15; 20 μg/ml; Bacitracin 0; 0.25; 0.5; 1; 2; 4 μg/ml; excitation 485 nm, emission 520/10 nm
Protocol: as §1
The examination of in vivo fluorescence emission was carried out by culturing the cells of strain ATCC 13032 pSen1325 with 0.8 ml CGXII medium (Keilhauer et al, 1993, J. Bacteriol. 175: 5595-603) in microtiter dimension (Flowerplate® MTP-48-B) in the BioLector system (m2p-labs GmbH, 52499 Baesweiler, Germany). 13 cultures with cells of strain ATCC 13032 pSen1325 were inoculated to an OD of 0.1 and cultured for 24 hours. After 4 hours the antibiotic substances Vancomycine or Bacitracine were added to the cultures. Vancomycine-concentrations were adjusted to 0; 1.25; 2.5; 5; 10; 15; 20 μg/ml and Bacitracin-concentrations were adjusted to 0; 0.25; 0.5; 1; 2; 4 μg/ml. Every 10 minutes the cell densities of cultures and the fluorescence were measured. The fluorescence was excited with light of wavelength 485 nm, the fluorescence emission measurement of EYFP was carried out at 520/10 nm. The fluorescence of the cultures has been digitally recorded by means of the BioLection V.2.4.1.0 software.

CC[C@H](C)[C@H](N)C1=N[C@H](C(=O)N[C@@H](CC(C)C)C(=O)N[C@H](CCC(=O)O)C(=O)N[C@H](C(=O)N[C@H]2CCCCNC(=O)[C@H](CC(N)=O)NC(=O)[C@@H](CC(=O)O)NC(=O)[C@H](Cc3cnc[nH]3)NC(=O)[C@@H](Cc3ccccc3)NC(=O)[C@H]([C@@H](C)CC)NC(=O)[C@@H](CCCN)NC2=O)[C@@H](C)CC)CS1 [Bacitracine] ({Ileψ(thiazoline)Cys}-L[dE]IK[dOrn]I[dF]H[dD]N; lactam 4-C)
fluorescence emission of cultures as a function of the concentration of the compound [1]: fluorescence emissions of cultures with different Vancomycine or Bacitracine concentrations also differs
fluorescence emission of cultures as a function of the concentration of the compound [2]: fluorescence emissions of cultures with different Vancomycine or Bacitracine concentrations also differs

CN[C@H](CC(C)C)C(=O)N[C@H]1C(=O)N[C@@H](CC(N)=O)C(=O)N[C@H]2C(=O)N[C@H]3C(=O)N[C@H](C(=O)N[C@H](C(=O)O)c4cc(O)cc(O)c4-c4cc3ccc4O)[C@H](O)c3ccc(c(Cl)c3)Oc3cc2cc(c3O[C@@H]2O[C@H](CO)[C@@H](O)[C@H](O)[C@H]2O[C@H]2C[C@](C)(N)[C@H](O)[C@H](C)O2)Oc2ccc(cc2Cl)[C@H]1O [Vancomycine]
fluorescence emission of cultures as a function of the concentration of the compound [1]: fluorescence emissions of cultures with different Vancomycine or Bacitracine concentrations also differs
fluorescence emission of cultures as a function of the concentration of the compound [2]: fluorescence emissions of cultures with different Vancomycine or Bacitracine concentrations also differs
